# According to ChEMBL document CHEMBL1201862, “PubChem BioAssay data set” (2004):
#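 Test compounds were applied to cells in 96-well plates for 48 hours at 5 doses. The concentration for 50% growth inhibition is given as GI50.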 Activity calls are given as the source filed them. No stated cut-off is given here; in the data, active = GI50 up to about 1.1 µM and inactive = higher.
# Assays:
# Assay in all cases: NCI tumour cell line growth inhibition, 48 h
# K562 = system: K562
# SNB-19 = system: SNB-19
# SK-OV-3 = system: SK-OV-3
# NCI-H522 = system: NCI-H522
# SR = system: SR
# HCT-15 = system: HCT-15
# NCI-H23 = system: NCI-H23
# UACC-257 = system: UACC-257
# SNB-75 = system: SNB-75
# SW-620 = system: SW-620
# UACC-62 = system: UACC-62
# HL-60 = system: HL-60
# HT-29 = system: HT-29
# HCC 2998 = system: HCC 2998
# UO-31 = system: UO-31
# MDA-MB-435 = system: MDA-MB-435
# SF-268 = system: SF-268
# OVCAR-5 = system: OVCAR-5
# MOLT-4 = system: MOLT-4
# OVCAR-8 = system: OVCAR-8
# DU-145 = system: DU-145
# COLO 205 = system: COLO 205
# T47D = system: T47D
# M14 = system: M14
# CAKI-1 = system: CAKI-1
# Malme-3M = system: Malme-3M
# A549 = system: A549
# ACHN = system: ACHN
# CCRF-CEM = system: CCRF-CEM
# SK-MEL-28 = system: SK-MEL-28
# MCF7 = system: MCF7
# SF-295 = system: SF-295
# U-251 = system: U-251
# NCI-H226 = system: NCI-H226
# SK-MEL-2 = system: SK-MEL-2
# MDA-MB-231 = system: MDA-MB-231
# SF-539 = system: SF-539
# NCI/ADR-RES = system: NCI/ADR-RES
# IGROV-1 = system: IGROV-1
# HOP-62 = system: HOP-62
# SN12C = system: SN12C
# MDA-N = system: MDA-N
# NCI-H460 = system: NCI-H460
# KM12 = system: KM12
# BT-549 = system: BT-549
# HCT-116 = system: HCT-116
# PC-3 = system: PC-3
# SK-MEL-5 = system: SK-MEL-5
# Hs-578T = system: Hs-578T
# TK-10 = system: TK-10
# 786-0 = system: 786-0
# OVCAR-3 = system: OVCAR-3
# A498 = system: A498
# LOX IMVI = system: LOX IMVI
# OVCAR-4 = system: OVCAR-4
# HOP-92 = system: HOP-92
# RPMI-8226 = system: RPMI-8226
# EKVX = system: EKVX
# RXF 393 = system: RXF 393
smiles,measurement,setting,value
O=C(O)Cn1ccc(=O)c2cc([N+](=O)[O-])ccc21,GI50,K562,> 100 µM (inactive)
same,GI50,SNB-19,> 100 µM (inactive)
same,GI50,SK-OV-3,> 100 µM (inactive)
same,GI50,NCI-H522,> 100 µM (inactive)
same,GI50,SR,> 100 µM (inactive)
same,GI50,HCT-15,> 100 µM
same,GI50,NCI-H23,> 100 µM (inactive)
same,GI50,UACC-257,> 100 µM (inactive)
same,GI50,SNB-75,> 100 µM (inactive)
same,GI50,SW-620,> 100 µM (inactive)
same,GI50,UACC-62,> 100 µM (inactive)
same,GI50,HL-60,> 100 µM (inactive)
same,GI50,HT-29,> 100 µM (inactive)
same,GI50,HCC 2998,> 100 µM (inactive)
same,GI50,UO-31,> 100 µM (inactive)
same,GI50,MDA-MB-435,> 100 µM (inactive)
same,GI50,SF-268,> 100 µM (inactive)
same,GI50,OVCAR-5,> 100 µM (inactive)
same,GI50,MOLT-4,> 100 µM (inactive)
same,GI50,OVCAR-8,> 100 µM (inactive)
same,GI50,DU-145,38.1 µM (inactive)
same,GI50,COLO 205,48.8 µM (inactive)
same,GI50,T47D,33.1 µM (inactive)
same,GI50,M14,> 100 µM (inactive)
same,GI50,CAKI-1,> 100 µM (inactive)
same,GI50,Malme-3M,> 100 µM (inactive)
same,GI50,A549,> 100 µM (inactive)
same,GI50,ACHN,> 100 µM (inactive)
same,GI50,CCRF-CEM,> 100 µM (inactive)
same,GI50,SK-MEL-28,> 100 µM (inactive)
same,GI50,MCF7,> 100 µM (inactive)
same,GI50,SF-295,> 100 µM (inactive)
same,GI50,U-251,> 100 µM (inactive)
same,GI50,NCI-H226,> 100 µM (inactive)
same,GI50,SK-MEL-2,> 100 µM (inactive)
same,GI50,MDA-MB-231,19.4 µM (inactive)
same,GI50,SF-539,> 100 µM (inactive)
same,GI50,NCI/ADR-RES,> 100 µM (inactive)
same,GI50,IGROV-1,> 100 µM (inactive)
same,GI50,HOP-62,> 100 µM (inactive)
same,GI50,SN12C,> 100 µM (inactive)
same,GI50,MDA-N,> 100 µM (inactive)
same,GI50,NCI-H460,> 100 µM (inactive)
same,GI50,KM12,> 100 µM (inactive)
same,GI50,BT-549,> 100 µM (inactive)
same,GI50,HCT-116,> 100 µM (inactive)
same,GI50,PC-3,> 100 µM (inactive)
same,GI50,SK-MEL-5,> 100 µM (inactive)
same,GI50,Hs-578T,> 100 µM (inactive)
same,GI50,TK-10,> 100 µM (inactive)
same,GI50,786-0,> 100 µM (inactive)
same,GI50,OVCAR-3,> 100 µM (inactive)
same,GI50,A498,> 100 µM (inactive)
Oc1[nH]c(Nc2ccc(Cl)c(C(F)(F)F)c2)nc2ncnc1-2,GI50,K562,39.6 µM (inactive)
same,GI50,LOX IMVI,25.5 µM (inactive)
same,GI50,SNB-19,45.1 µM (inactive)
same,GI50,SK-OV-3,> 100 µM (inactive)
same,GI50,OVCAR-4,72.1 µM (inactive)
same,GI50,NCI-H522,14.2 µM (inactive)
same,GI50,HCT-15,> 100 µM
same,GI50,NCI-H23,73.8 µM (inactive)
same,GI50,HOP-92,58.5 µM (inactive)
same,GI50,UACC-257,59.2 µM (inactive)
same,GI50,SNB-75,33.9 µM (inactive)
same,GI50,SW-620,70 µM (inactive)
same,GI50,UACC-62,32.6 µM (inactive)
same,GI50,HT-29,33 µM (inactive)
same,GI50,HCC 2998,24.7 µM (inactive)
same,GI50,UO-31,> 100 µM (inactive)
same,GI50,MDA-MB-435,50.2 µM (inactive)
same,GI50,RPMI-8226,> 100 µM (inactive)
same,GI50,SF-268,36.2 µM (inactive)
same,GI50,OVCAR-5,65.9 µM (inactive)
same,GI50,MOLT-4,23.2 µM (inactive)
same,GI50,OVCAR-8,31.8 µM (inactive)
same,GI50,DU-145,36.1 µM (inactive)
same,GI50,COLO 205,27.2 µM (inactive)
same,GI50,EKVX,53.1 µM (inactive)
same,GI50,T47D,24.5 µM (inactive)
same,GI50,M14,57.4 µM (inactive)
same,GI50,CAKI-1,> 100 µM (inactive)
same,GI50,Malme-3M,30.3 µM (inactive)
same,GI50,A549,> 100 µM (inactive)
same,GI50,ACHN,44.5 µM (inactive)
same,GI50,CCRF-CEM,21 µM (inactive)
same,GI50,MCF7,27.2 µM (inactive)
same,GI50,SF-295,> 100 µM (inactive)
same,GI50,U-251,50.5 µM (inactive)
same,GI50,NCI-H226,> 100 µM (inactive)
same,GI50,SK-MEL-2,25.5 µM (inactive)
same,GI50,MDA-MB-231,42.2 µM (inactive)
same,GI50,SF-539,26 µM (inactive)
same,GI50,NCI/ADR-RES,> 100 µM (inactive)
same,GI50,IGROV-1,35.7 µM (inactive)
same,GI50,HOP-62,> 100 µM (inactive)
same,GI50,SN12C,32.5 µM (inactive)
same,GI50,MDA-N,25.6 µM (inactive)
same,GI50,NCI-H460,51.8 µM (inactive)
same,GI50,KM12,44.8 µM (inactive)
same,GI50,BT-549,36.6 µM (inactive)
same,GI50,HCT-116,34.7 µM (inactive)
same,GI50,PC-3,33 µM (inactive)
same,GI50,SK-MEL-5,40.4 µM (inactive)
same,GI50,Hs-578T,38.5 µM (inactive)
same,GI50,TK-10,52.6 µM (inactive)
same,GI50,786-0,25.7 µM (inactive)
same,GI50,OVCAR-3,36.6 µM (inactive)
same,GI50,RXF 393,26.1 µM (inactive)
same,GI50,A498,24 µM (inactive)
